Experimental data as given in patent US8278345B2, “Inhibitors of glutaminyl cyclase” (Probiodrug AG, priority 2006, dated 2012).

target: hQC (Homo sapiens, UniProt Q16769); assay: Inhibitor assay for glutaminyl cyclase activity (fluorometric, H-Gln-βNA / H-Gln-AMC); type: biochemical; details: compound from preparative synthesis, purified; read-out: IC50 hQC
Experimental: All measurements were performed with a BioAssay Reader HTS-7000Plus for microplates (Perkin Elmer) at 30° C. QC activity was evaluated fluorometrically using H-Gln-βNA. The samples consisted of 0.2 mM fluorogenic substrate, 0.25 U pyroglutamyl aminopeptidase (Unizyme, Hørsholm, Denmark) in 0.2 M Tris/HCl, pH 8.0 containing 20 mM EDTA and an appropriately diluted aliquot of QC in a final volume of 250 μl. Excitation/emission wavelengths were 320/410 nm. The assay reactions were initiated by addition of glutaminyl cyclase. QC activity was determined from a standard curve of β-naphthylamine under assay conditions. One unit is defined as the amount of QC catalyzing the formation of 1 μmol pGlu-βNA from H-Gln-βNA per minute under the described conditions.
In a second fluorometric assay, QC activity was determined using H-Gln-AMC as substrate. Reactions were carried out at 30° C. utilizing the NOVOStar reader for microplates (BMG labtechnologies). The samples consisted of varying concentrations of the fluorogenic substrate, 0.1 U pyroglutamyl aminopeptidase (Qiagen) in 0.05 M Tris/HCl, pH 8.0 containing 5 mM EDTA and an appropriately diluted aliquot of QC in a final volume of 250 μl. Excitation/emission wavelengths were 380/460 nm. The assay reactions were initiated by addition of glutaminyl cyclase. QC activity was determined from a standard curve of 7-amino-4-methylcoumarin under assay conditions. The kinetic data were evaluated using GraFit sofware.
For inhibitor testing, the sample composition was the same as described above, except of the putative inhibitory compound added. For a rapid test of QC-inhibition, samples contained 4 mM of the respective inhibitor and a substrate concentration at 1 KM. For detailed investigations of the inhibition and determination of Ki-values, influence of the inhibitor on the auxiliary enzymes was investigated first. In every case, there was no influence on either enzyme detected, thus enabling the reliable determination of the QC inhibition. The inhibitory constant was evaluated by fitting the set of progress curves to the general equation for competitive inhibition using GraFit software.

Chain of hQC (Q16769 29-361): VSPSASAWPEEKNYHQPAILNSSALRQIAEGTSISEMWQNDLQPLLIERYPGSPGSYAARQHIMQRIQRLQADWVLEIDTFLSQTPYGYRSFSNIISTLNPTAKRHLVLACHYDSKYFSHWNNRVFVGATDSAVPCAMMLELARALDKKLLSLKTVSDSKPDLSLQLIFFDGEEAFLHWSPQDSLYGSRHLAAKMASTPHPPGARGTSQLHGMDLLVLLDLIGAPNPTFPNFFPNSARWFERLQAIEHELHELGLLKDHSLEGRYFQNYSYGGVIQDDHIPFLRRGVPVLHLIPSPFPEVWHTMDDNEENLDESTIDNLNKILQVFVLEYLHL

| Structure (SMILES) | IC50 |
| --- | --- |
| Cc1ccc(C2C(c3c[nH]c4ccccc34)=C(O)C(=O)N2CCCn2ccnc2)cc1C (stereo not drawn) [Compound 123, 5-(3,4-Dimethyl-phenyl)-3-hydroxy-1-(3-imidazol-1-yl-propyl)-4-(1H-indol-3-yl)-1,5-dihydro-pyrrol-2-one] | 562 nM |
| CC(C)CC(=O)C1=C(O)C(=O)N(c2ccc3[nH]cnc3c2)C1c1ccc2cccc(O)c2n1 (stereo not drawn) [Compound 327, 1-(1H-Benzoimidazol-5-yl)-3-hydroxy-5-(8-hydroxy-quinolin-2-yl)-4-(3-methyl-butyryl)-1,5-dihydro-pyrrol-2-one] | 4.5 nM |
| O=C1C(O)=C(c2cccc(O)c2)C(c2ccc3nsnc3c2)N1c1ccc2[nH]cnc2c1 (stereo not drawn) [Compound 269, 1-(1H-Benzoimidazol-5-yl)-5-benzo[c][1,2,5]thiadiazol-5-yl-3-hydroxy-4-(3-hydroxy-phenyl)-1,5-dihydro-pyrrol-2-one] | 22.5 nM |

same assay, conditions: read-out: IC50

| Structure (SMILES) | IC50 |
| --- | --- |
| O=C1C(O)=C(c2cccc(O)c2)C(c2c[nH]c3ccccc23)N1CCCn1ccnc1 (stereo not drawn) [Compound 18, 3-Hydroxy-4-(3-hydroxy-phenyl)-1-(3-imidazol-1-yl-propyl)-5-(1H-indol-3-yl)-1,5-dihydro-pyrrol-2-one] | 9400 nM |
| CC(=O)C1=C(O)C(=O)N(c2ccc3[nH]cnc3c2)C1c1cc(F)cc(F)c1F (stereo not drawn) [Compound 261, 4-Acetyl-1-(1H-benzoimidazol-5-yl)-3-hydroxy-5-(2,3,5-trifluoro-phenyl)-1,5-dihydro-pyrrol-2-one] | 310 nM |
| O=C1C(O)=C(c2c[nH]c3ccccc23)C(c2ccc(CO)o2)N1CCCn1ccnc1 (stereo not drawn) [Compound 126, 3-Hydroxy-5-(5-hydroxymethyl-furan-2-yl)-1-(3-imidazol-1-yl-propyl)-4-(1H-indol-3-yl)-1,5-dihydro-pyrrol-2-one] | 400 nM |
| Cc1ccc(C2C(c3c[nH]c4ccccc34)=C(O)C(=O)N2CCCn2ccnc2)cc1C (stereo not drawn) [Compound 123, 5-(3,4-Dimethyl-phenyl)-3-hydroxy-1-(3-imidazol-1-yl-propyl)-4-(1H-indol-3-yl)-1,5-dihydro-pyrrol-2-one] | 40 nM |
| CC1=C(O)C(=O)N(CCCn2ccnc2)C1/C=C/C(C)C (stereo not drawn) [Compound 24, 3-Hydroxy-1-(3-imidazol-1-yl-propyl)-4-methyl-5-(3-methyl-but-1-enyl)-1,5-dihydro-pyrrol-2-one] | 5800 nM |
| CCCC(=O)C1=C(O)C(=O)N(c2ccc3[nH]cnc3c2)C1c1ccco1 (stereo not drawn) [Compound 353, 1-(1H-Benzoimidazol-5-yl)-4-butyryl-5-furan-2-yl-3-hydroxy-1,5-dihydro-pyrrol-2-one] | 2740 nM |
| Cc1ccc2occ(C3C(c4c[nH]c5ccccc45)=C(O)C(=O)N3c3ccc4[nH]cnc4c3)c(=O)c2c1 (stereo not drawn) [Compound 346, 1-(1H-Benzoimidazol-5-yl)-3-hydroxy-4-(1H-indol-3-yl)-5-(6-methyl-4-oxo-4H-chromen-3-yl)-1,5-dihydro-pyrrol-2-one] | 4990 nM |
| CCCCCC1C(C(C)C)=C(O)C(=O)N1CCCn1ccnc1 (stereo not drawn) [Compound 62, 3-Hydroxy-1-(3-imidazol-1-yl-propyl)-4-isopropyl-5-pentyl-1,5-dihydro-pyrrol-2-one] | 40 nM |
| CC(C)CC(=O)C1=C(O)C(=O)N(c2ccc3[nH]cnc3c2)C1c1ccc2cccc(O)c2n1 (stereo not drawn) [Compound 327, 1-(1H-Benzoimidazol-5-yl)-3-hydroxy-5-(8-hydroxy-quinolin-2-yl)-4-(3-methyl-butyryl)-1,5-dihydro-pyrrol-2-one] | 4 nM |
| CC(=O)C1=C(O)C(=O)N(c2ccc3[nH]cnc3c2)C1C1CCOC1 (stereo not drawn) [Compound 314, 4-Acetyl-1-(1H-benzoimidazol-5-yl)-3-hydroxy-5-(tetrahydro-furan-3-yl)-1,5-dihydro-pyrrol-2-one] | 4810 nM |
| O=C1C(O)=C(c2ccc(O)cc2)C(CO)N1CCCn1ccnc1 (stereo not drawn) [Compound 174, 3-Hydroxy-5-hydroxymethyl-4-(4-hydroxy-phenyl)-1-(3-imidazol-1-yl-propyl)-1,5-dihydro-pyrrol-2-one] | 400 nM |
| O=C1C(O)=C(c2ccccc2)C(c2cccc(Cl)c2)N1CCCn1ccnc1 (stereo not drawn) [Compound 109, 5-(3-Chloro-phenyl)-3-hydroxy-1-(3-imidazol-1-yl-propyl)-4-phenyl-1,5-dihydro-pyrrol-2-one] | 400 nM |
| CCCCCC1=C(O)C(=O)N(CCCn2ccnc2)C1C(O)CO (stereo not drawn) [Compound 189, 5-(1,2-Dihydroxy-ethyl)-3-hydroxy-1-(3-imidazol-1-yl-propyl)-4-pentyl-1,5-dihydro-pyrrol-2-one] | 400 nM |
| O=C1C(O)=C(c2ccc(O)cc2)C(c2cccc(O)c2)N1CCCn1ccnc1 (stereo not drawn) [Compound 182, 3-Hydroxy-5-(3-hydroxy-phenyl)-4-(4-hydroxy-phenyl)-1-(3-imidazol-1-yl-propyl)-1,5-dihydro-pyrrol-2-one] | 40 nM |
| CC(C)CC(=O)C1=C(O)C(=O)N(c2ccc3[nH]cnc3c2)C1c1c[nH]cn1 (stereo not drawn) [Compound 461, 1-(1H-Benzoimidazol-5-yl)-3-hydroxy-5-(1H-imidazol-4-yl)-4-(3-methyl-butyryl)-1,5-dihydro-pyrrol-2-one] | 4000 nM |
| O=C1C(O)=C(c2cccc(O)c2)C(c2ccc3nsnc3c2)N1c1ccc2[nH]cnc2c1 (stereo not drawn) [Compound 269, 1-(1H-Benzoimidazol-5-yl)-5-benzo[c][1,2,5]thiadiazol-5-yl-3-hydroxy-4-(3-hydroxy-phenyl)-1,5-dihydro-pyrrol-2-one] | 4 nM |
| CC1=C(O)C(=O)N(c2ccc3[nH]cnc3c2)C1c1ccnc2ccccc12 (stereo not drawn) [Compound 270, 1-(1H-Benzoimidazol-5-yl)-3-hydroxy-4-methyl-5-quinolin-4-yl-1,5-dihydro-pyrrol-2-one] | 1480 nM |

| Structure (SMILES) | IC50 |
| --- | --- |
| Cc1cccc(C2C(C(=O)C3CC3)=C(O)C(=O)N2c2ccc3[nH]cnc3c2)c1 (stereo not drawn) [Compound 260, 1-(1H-Benzoimidazol-5-yl)-4-cyclopropanecarbonyl-3-hydroxy-5-m-tolyl-1,5-dihydro-pyrrol-2-one] | 40 nM |
| O=C1C(O)=C(c2ccccc2)C(c2c(F)ccc(Cl)c2F)N1c1ccc2[nH]cnc2c1 (stereo not drawn) [Compound 339, 1-(1H-Benzoimidazol-5-yl)-5-(3-chloro-2,6-difluoro-phenyl)-3-hydroxy-4-phenyl-1,5-dihydro-pyrrol-2-one] | 580 nM |
| CCC1=C(O)C(=O)N(CCCn2ccnc2)C1c1ccc(OC)cc1 (stereo not drawn) [Compound 229, 4-Ethyl-3-hydroxy-1-(3-imidazol-1-yl-propyl)-5-(4-methoxy-phenyl)-1,5-dihydro-pyrrol-2-one] | 40 nM |
| CC(C)C1=C(O)C(=O)N(c2ccc3[nH]cnc3c2)C1c1ccc(O)c(Br)c1 (stereo not drawn) [Compound 377, 1-(1H-Benzoimidazol-5-yl)-5-(3-bromo-4-hydroxy-phenyl)-3-hydroxy-4-isopropyl-1,5-dihydro-pyrrol-2-one] | 1480 nM |
| CCCCCC1=C(O)C(=O)N(CCCn2ccnc2)C1CO (stereo not drawn) [Compound 211, 3-Hydroxy-5-hydroxymethyl-1-(3-imidazol-1-yl-propyl)-4-pentyl-1,5-dihydro-pyrrol-2-one] | 400 nM |
| O=C1C(O)=C(c2ccccc2)C(c2cc[nH]n2)N1CCCn1ccnc1 (stereo not drawn) [Compound 81, 3-Hydroxy-1-(3-imidazol-1-yl-propyl)-4-phenyl-5-(1H-pyrazol-3-yl)-1,5-dihydro-pyrrol-2-one] | 3100 nM |
| CCCCC1C(CC)=C(O)C(=O)N1CCCn1ccnc1 (stereo not drawn) [Compound 248, 5-Butyl-4-ethyl-3-hydroxy-1-(3-imidazol-1-yl-propyl)-1,5-dihydro-pyrrol-2-one] | 2200 nM |
| CC1=C(O)C(=O)N(c2ccc3[nH]cnc3c2)C1c1coc2ccccc2c1=O (stereo not drawn) [Compound 356, 1-(1H-Benzoimidazol-5-yl)-3-hydroxy-4-methyl-5-(4-oxo-4H-chromen-3-yl)-1,5-dihydro-pyrrol-2-one] | 3910 nM |
| CC1=C(O)C(=O)N(CCCn2ccnc2)C1C1CC1 (stereo not drawn) [Compound 46, 5-Cyclopropyl-3-hydroxy-1-(3-imidazol-1-yl-propyl)-4-methyl-1,5-dihydro-pyrrol-2-one] | 2200 nM |
| CC1=C(O)C(=O)N(c2ccc3[nH]cnc3c2)C1c1nccs1 (stereo not drawn) [Compound 326, 1-(1H-Benzoimidazol-5-yl)-3-hydroxy-4-methyl-5-thiazol-2-yl-1,5-dihydro-pyrrol-2-one] | 3280 nM |
| O=C(O)CC1=C(O)C(=O)N(c2ccc3[nH]cnc3c2)C1c1ccnc2ccccc12 (stereo not drawn) [Compound 297, [1-(1H-Benzoimidazol-5-yl)-4-hydroxy-5-oxo-2-quinolin-4-yl-2,5-dihydro-1H-pyrrol-3-yl]-acetic acid] | 2380 nM |
| Cc1ccc(C2C(c3ccccc3)=C(O)C(=O)N2CCCn2ccnc2)o1 (stereo not drawn) [Compound 84, 3-Hydroxy-1-(3-imidazol-1-yl-propyl)-5-(5-methyl-furan-2-yl)-4-phenyl-1,5-dihydro-pyrrol-2-one] | 2200 nM |
| O=C1C(O)=C(c2ccccc2)C(Cc2ccccc2)N1CCCn1ccnc1 (stereo not drawn) [Compound 99, 5-Benzyl-3-hydroxy-1-(3-imidazol-1-yl-propyl)-4-phenyl-1,5-dihydro-pyrrol-2-one] | 40 nM |
| O=C1C(O)=C(c2ccc(O)cc2)C(C2=CCCCC2)N1CCCn1ccnc1 (stereo not drawn) [Compound 164, 5-Cyclohex-1-enyl-3-hydroxy-4-(4-hydroxy-phenyl)-1-(3-imidazol-1-yl-propyl)-1,5-dihydro-pyrrol-2-one] | 1300 nM |
| O=C(C1=C(O)C(=O)N(c2ccc3[nH]cnc3c2)C1)C1CCCCC1 [Compound 441, 1-(1H-Benzoimidazol-5-yl)-4-cyclohexanecarbonyl-3-hydroxy-1,5-dihydro-pyrrol-2-one] | 850 nM |
| CC1=C(O)C(=O)N(c2ccc3[nH]cnc3c2)C1c1coc2ccc(C)cc2c1=O (stereo not drawn) [Compound 328, 1-(1H-Benzoimidazol-5-yl)-3-hydroxy-4-methyl-5-(6-methyl-4-oxo-4H-chromen-3-yl)-1,5-dihydro-pyrrol-2-one] | 310 nM |
